Values after ≈ are worked out from the molar mass of the structure shown. Read-outs that look alike come from different tables or passages of the source.
Columns and labels:
human wildtype CFTR [1] = target: T1, human wildtype CFTR (Homo sapiens, UniProt P13569); experiment: Short-circuit current analysis of CFTR inhibition in CFTR-expressing FRT cells; format: cell-based; parameters: expressed in transfected cells; host or cells: Fischer rat thyroid (FRT) epithelial cells on Snapwell inserts
Experimental: Short-Circuit Current—Snapwell inserts containing CFTR-expressing FRT cells were mounted in an Ussing chamber. The hemichambers contained 5 mL of buffer containing 75 mM NaCl and 75 mM Na gluconate (apical) and 150 mM NaCl (basolateral) (pH 7.3), and the basolateral membrane was permeabilized with 250 μg/mL amphotericin B, as described (see, e.g., Sonawane et al., FASEB J 2006, supra). Short-circuit current was recorded continuously using a DVC-1000 voltage clamp (World Precision Instruments) using Ag/AgCl electrodes and 3 M KCl agar bridges.
Current was measured in CFTR-expressing FRT cells in which the basolateral membrane was permeabilized and in the presence of a transepithelial chloride concentration gradient, so that current is a quantitative linear measure of CFTR function. CFTR was activated by forskolin, followed by serial additions of increasing concentrations of test compounds.
CFTR inhibition potency was measured by short-circuit current analysis in FRT epithelial cells expressing human CFTR in presence of a transepithelial chloride gradient and in which the basolateral membrane was permeabilized with amphotericin B. Under these conditions short-circuit current is proportional to CFTR chloride conductance.

Aqueous solubility = format: physicochemical
human wildtype CFTR [2] = target: T1, human wildtype CFTR; experiment: Fluorescence plate reader assay of CFTR inhibition (iodide influx); format: cell-based; parameters: expressed in transfected cells; host or cells: Fischer rat thyroid (FRT) cells; settings: Determined by micro-plate reader assay; FRT cells co-expressing human wild type CFTR and YFP-H148Q
Experimental: Cell Culture and Plate Reader Assay of CFTR Inhibition—Fischer rat thyroid (FRT) cells co-expressing human wild type CFTR and the halide indicator YFP-H148Q were cultured in 96-well black-walled microplates (Corning Costar) at a density of 20,000 cells per well in Coon's modified F12 medium containing 10% fetal bovine serum, 2 mM L-glutamine, 100 U/mL penicillin and 100 μg/mL streptomycin. CFTR chloride conductance was assayed at 48 h after plating on a FluoStar fluorescence plate reader (BMG Lab Technologies) as described (see, e.g., Ma et al., J Clin Invest. 2002, supra). Each well was washed 3 times with PBS, leaving 60 μL PBS. Test compounds were added and incubated with the cells for 45 min. Then, 5 μL of a CFTR-activating cocktail (10 μM forskolin, 100 μM IBMX, 20 μM apigenin in PBS) was added. After 15 min, each well was assayed for iodide influx by recording fluorescence continuously (200 ms per point) for 2 s (baseline) and then for 10 s after rapid addition of 160 μL of isosmolar PBS in which 137 mM chloride was replaced by iodide. The initial rate of iodide influx was computed from fluorescence data by non-linear regression.
Initial testing of the compounds for the capability to inhibit CFTR was performed using a plate-reader assay in which iodide influx was measured in FRT cells co-expressing human wild type CFTR and the iodide-sensing yellow fluorescent protein YFP-H148Q/1152L. […] Table B below provides IC50 values for PPQ and BPO compounds.
The relative IC50 values obtained from the plate reader assay are useful for comparisons. Absolute IC50 values obtained from the plate-reader assay are approximate, generally underestimating compound potency because of assay non-linearities, pH-dependent YFP fluorescence, the use of iodide instead of chloride, and compound dilution at the start of the assay (see, e.g., Galietta et al., Am. J. Physiol. Cell Physiol. 281:C1734-42 (2001)).

E13.5 embryonic kidneys [3] = experiment: Embryonic kidney organ culture model of PKD (8-Br-cAMP-induced cyst growth); format: cell-based, mouse
Experimental: Embryonic Organ Culture Model of PKD—Mouse embryos were obtained at embryonic day 13.5 (E13.5). Metanephroi were dissected and placed on transparent Falcon […] porous cell culture inserts as described (see, e.g., Tradtrantip et al., J. Med. Chem. 2009, supra). To the culture inserts was added DMEM/Ham's F-12 nutrient medium supplemented with 2 mM L-glutamine, 10 mM HEPES, 5 μg/mL insulin, 5 μg/mL transferrin, 2.8 nM selenium, 25 ng/ml prostaglandin E, 32 pg/ml T3, 250 U/ml penicillin, and 250 μg/ml streptomycin. Kidneys were maintained in a 37° C. humidified CO2 incubator for up to 8 days. Culture medium containing 100 μM 8-Br-cAMP, with or without test compound, was replaced (in the lower chamber) every 12 h. Kidneys were photographed using a Nikon inverted microscope (Nikon TE 2000-S) equipped with 2× objective lens, 520 nm bandpass filter, and high-resolution CCD camera. Percentage cyst area was calculated as total cyst area divided by total kidney area.
An established embryonic ex vivo kidney organ culture model of PKD was used to test BPO-27 (racemic mixture of R and S forms) efficacy in reducing cAMP agonist-induced renal cystogenesis (see Example 30). […]

CFTR = CFTR (Homo sapiens, UniProt P13569); settings: literature values; read-out: IC50 for CFTR inhibition; cited from earlier work
E13.5 embryonic kidneys [4] = settings: from Tradtrantip et al., J. Med. Chem. 2009; read-out: IC50 for inhibition of cyst growth; cited from earlier work
[5] = short-circuit current, FRT cells expressing human CFTR, forskolin-stimulated, read-out: IC50 for inhibition of CFTR chloride conductance

T1 sequence (P13569 whole entry): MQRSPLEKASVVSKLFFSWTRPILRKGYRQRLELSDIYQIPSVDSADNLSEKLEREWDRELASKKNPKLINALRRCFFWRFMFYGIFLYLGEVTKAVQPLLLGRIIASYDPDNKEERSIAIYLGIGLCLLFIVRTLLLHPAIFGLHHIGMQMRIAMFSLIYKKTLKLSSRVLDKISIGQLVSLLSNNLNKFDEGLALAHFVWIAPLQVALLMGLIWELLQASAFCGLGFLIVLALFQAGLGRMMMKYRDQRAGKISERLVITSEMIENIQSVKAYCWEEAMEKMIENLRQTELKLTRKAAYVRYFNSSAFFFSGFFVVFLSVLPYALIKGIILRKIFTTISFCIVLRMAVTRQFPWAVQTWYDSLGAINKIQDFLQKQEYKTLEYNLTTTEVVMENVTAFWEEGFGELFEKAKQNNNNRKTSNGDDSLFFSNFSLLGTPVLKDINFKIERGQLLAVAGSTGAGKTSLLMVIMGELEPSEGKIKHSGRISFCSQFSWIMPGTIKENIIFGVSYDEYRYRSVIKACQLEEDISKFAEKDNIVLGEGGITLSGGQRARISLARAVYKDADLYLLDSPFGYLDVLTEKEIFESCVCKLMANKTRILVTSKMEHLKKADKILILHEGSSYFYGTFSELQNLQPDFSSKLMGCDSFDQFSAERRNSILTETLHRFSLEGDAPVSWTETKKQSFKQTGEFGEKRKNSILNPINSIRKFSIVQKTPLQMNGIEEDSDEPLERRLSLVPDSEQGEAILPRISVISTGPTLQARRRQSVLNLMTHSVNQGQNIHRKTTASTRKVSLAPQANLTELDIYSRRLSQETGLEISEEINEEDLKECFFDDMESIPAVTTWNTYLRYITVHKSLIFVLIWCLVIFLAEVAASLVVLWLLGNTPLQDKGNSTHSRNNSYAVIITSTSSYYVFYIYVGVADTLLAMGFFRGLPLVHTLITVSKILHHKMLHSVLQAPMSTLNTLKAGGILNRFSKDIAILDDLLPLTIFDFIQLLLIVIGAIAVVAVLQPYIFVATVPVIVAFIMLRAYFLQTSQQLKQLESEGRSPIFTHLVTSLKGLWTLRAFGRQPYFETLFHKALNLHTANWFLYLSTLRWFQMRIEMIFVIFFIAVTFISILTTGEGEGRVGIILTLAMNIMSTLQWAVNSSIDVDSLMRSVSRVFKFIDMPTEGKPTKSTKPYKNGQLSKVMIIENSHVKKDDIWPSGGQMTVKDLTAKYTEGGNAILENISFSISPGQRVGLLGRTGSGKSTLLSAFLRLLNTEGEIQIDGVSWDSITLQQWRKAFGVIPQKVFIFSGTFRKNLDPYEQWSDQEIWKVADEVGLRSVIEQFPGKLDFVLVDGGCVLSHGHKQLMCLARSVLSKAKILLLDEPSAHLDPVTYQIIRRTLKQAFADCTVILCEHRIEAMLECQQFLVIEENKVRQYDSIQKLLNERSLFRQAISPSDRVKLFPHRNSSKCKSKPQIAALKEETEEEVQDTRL
Sequence of CFTR (P13569 whole entry, species assumed): as the sequence (P13569 whole entry) above

**Q.** For `Cn1c(=O)c2c(-c3ccccc3)n3c(c2n(C)c1=O)C(c1ccc(Br)o1)Oc1ccc(C(=O)O)cc1-3` (racemic) [BPO-27, 6-(5-Bromofuran-2-yl)-7,9-dimethyl-8,10-dioxo-11-phenyl-7,8,9,10-tetrahydro-6H-benzo[b]pyrimido[4′,5′:3,4]pyrrolo[1,2-d][1,4]oxazine-2-carboxylic acid], which IC50 (human wildtype CFTR [1]; Determined by short-circuit current assay, read-out: IC50 (μM)^B) is on record?
**A.** 0.008 µM

**Q.** What about the IC50 (human wildtype CFTR [1]; [5]) of the same compound?
**A.** ~0.008 µM

**Q.** What about the solubility (Aqueous solubility; pH 7.4 aqueous phosphate buffer, read-out: solubility) of the same compound?
**A.** 17 µM (≈ 9.32 µg/mL)

**Q.** And the IC50 (human wildtype CFTR [2])?
**A.** 40 nM

**Q.** And the IC50 (E13.5 embryonic kidneys [3]; Mus musculus, 100 μM 8-Br-cAMP, racemic mixture, read-out: IC50 for inhibition of cyst growth (percentage area occupied by cysts))?
**A.** ~100 nM

**Q.** What about the “cyst growth in 8-Br-cAMP-treated kidney (in words)” value (E13.5 embryonic kidneys [3]; compound in culture medium, 0.1 or 1 μM) of the same compound?
**A.** remarkably reduced

**Q.** With `Cc1ccc(C2Nc3ccccc3-n3c(-c4ccccc4)c4c(=O)n(C)c(=O)n(C)c4c32)o1` (centres unmarked) [PPQ-102, 7,9-Dimethyl-6-(5-methylfuran-2-yl)-11-phenyl-5,6-dihydropyrimido[4′,5′-3,4]pyrrolo[1,2-a]quinoxaline-8,10-(7H,9H)-dione, reference compound] as the compound, how does the IC50 (human wildtype CFTR [1]; [5]) read?
**A.** 0.1 µM

**Q.** What about the solubility (Aqueous solubility; albumin-free saline, saline or isotonic, read-out: water solubility) of the same compound?
**A.** ~2 µM (≈ 0.877 µg/mL)

**Q.** And the IC50 (human wildtype CFTR [2])?
**A.** 250 nM

**Q.** What about the IC50 (CFTR) of the same compound?
**A.** ~90 nM

**Q.** What about the IC50 (E13.5 embryonic kidneys [4]) of the same compound?
**A.** > 500 nM
